Experimental data as given in patent US12312346B2, “Pyridopyrimidine compounds and methods of their use” (Tufts Medical Center, Inc., priority 2018, dated 2025).
pIC50: −log10 of the molar value.

Test system: human leukemia cell line HPBALL (with Notch1 mutations)
Experiment: Cell cycle (PI staining, S-G2-M cells) and cell number, HPBALL
Format: cell-based
Conditions: Homo sapiens, 144 h; HPBALL, 6 days; read-out: IC50 (inhibition of proliferation, percentage of S-G2-M cells)
Method: FIG. 1A is a series of charts showing representative cell cycle profiles of human leukemia cell line HPBALL (with Notch1 mutations) treated with a vehicle (V) (for ribociclib (LEE) or compound GD) or LEE or compound GD for 6 days at 1, 5, 10, and 20 μM.
FIG. 1B is a histogram summarizing the cell cycle distribution of the HPBALL cell line treated with compound GD, as described for FIG. 1A. Data shown are mean±S.D. (n=6); *P<0.05 vs its vehicle controls, t-test.
FIG. 1C is a histogram summarizing the cell cycle distribution of the HPBALL cell line treated with ribociclib (LEE), as described for FIG. 1A. Data shown are mean±S.D. (n=6); *P<0.05 vs its vehicle controls, t-test.
FIG. 1D is a chart the percentage of S-G2-M cells in FIGS. 1B and 1C. IC50 is the concentration of an inhibitor where the response (here is the inhibition of proliferation) is reduced by half.
FIG. 1E is a bar graph summarizing the cell numbers of HPBALL cells treated with either GD with different doses or LEE (20 μM) for 6 days. Data shown are mean±S.D. (n=6); *P<0.05 vs vehicles (0) control, t-test.
HCl salt of 6-acetyl-5-methyl-2-((4-(piperazin-1-ylmethyl)thiazol-2-yl)amino)pyrido[2,3-d]pyrimidin-7(8H)-one (Compound GD) prepared in Example 1 was examined for its inhibitory activity in cancer cell lines and WT and CDK6^−/− mouse embryonic fibroblasts (MEFs) and stromal vascular fractions (SVFs). […]
Table 2: Experimental Procedures: sensitivity to CDK6 kinase activity inhibition was tested by incubating different cell lines in the presence of CDK6 inhibitor GD007/PBS for either 24 hours for detecting the status of pRB-780 phosphorylation, or 5 days for determining the effect of GD007 on cell proliferation. (1) By immunoblotting (WB), we will detect phospho-pRB-S^780, one of the substrates of CDK6 kinase; (2) By using FACS analysis, we will stain treated cells with Propidium Iodide (PI), a commonly used fluorescent intercalator, to measure the subpopulation of cell cycle to reveal any impact of CDK6 inhibition on cell proliferation; (3) cell numbers will be counted using hemocytometer.

`CN(C)C(=O)c1cc2cnc(Nc3ccc(N4CCNCC4)cn3)nc2n1C1CCCC1` [LEE, ribociclib, reference compound] gave a pIC50 of about 4.92.
